The values below come from patent US20260226048A1, “MULTI-CYCLIC IRAK AND FLT3 INHIBITING COMPOUNDS AND USES THEREOF” (CHILDREN'S HOSPITAL MEDICAL CENTER, priority 2023, published 2026).

One test has as its target T1, IRAK1 (Homo sapiens, UniProt P51617).
T1 construct: purchased Reaction Biology (RBC HotSpot)
The test is described as follows: RBC HotSpot Kinase Assay, IRAK1. Conditions: isolated kinase enzyme, 33P-ATP, P81 filter-binding. The test is classed as biochemical. Summed up:
(§1)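 Radiometric HotSpot assay of catalytic activity with isolated recombinant kinase, possibly truncated or kinase domain only. Buffer: 20 mM Hepes pH 7.5, 10 mM MgCl2, 1 mM EGTA, 0.01% Brij35, 0.02 mg/ml BSA, 0.1 mM Na3VO4, 2 mM DTT, 1% DMSO, with cofactors specific to each kinase.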

The subject of another test is MOLM14 D835Y cells. Put plainly: MOLM14 D835Y cell viability assay (Cell Titer Glo). It counts as cell-based. To be noted: Homo sapiens, MOLM-14, 48 h, cell viability, Cell Titer Glo, 48 hours; read-out: MOLM14 D835Y IC50. The essentials: (§2)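 MOLM14 cells with FLT3 D835Y or F691L kinase-domain resistance mutations seeded at 1000 cells/well and exposed to compound for 48 h under standard incubator conditions. Viability read by CellTiter-Glo luminescence after 15 min at room temperature.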

The test system of the next test is MOLM14 F691L cells. Put plainly: MOLM14 F691L cell viability assay (Cell Titer Glo). It counts as cell-based. To be noted: Homo sapiens, MOLM-14; cell viability, Cell Titer Glo, 48 hours; read-out: MOLM14 F691L IC50. Summed up:
as §2

For another test, the target named is T2, IRAK4 (Homo sapiens, UniProt Q9NWZ3).
T2 sequence (Q9NWZ3 1-460): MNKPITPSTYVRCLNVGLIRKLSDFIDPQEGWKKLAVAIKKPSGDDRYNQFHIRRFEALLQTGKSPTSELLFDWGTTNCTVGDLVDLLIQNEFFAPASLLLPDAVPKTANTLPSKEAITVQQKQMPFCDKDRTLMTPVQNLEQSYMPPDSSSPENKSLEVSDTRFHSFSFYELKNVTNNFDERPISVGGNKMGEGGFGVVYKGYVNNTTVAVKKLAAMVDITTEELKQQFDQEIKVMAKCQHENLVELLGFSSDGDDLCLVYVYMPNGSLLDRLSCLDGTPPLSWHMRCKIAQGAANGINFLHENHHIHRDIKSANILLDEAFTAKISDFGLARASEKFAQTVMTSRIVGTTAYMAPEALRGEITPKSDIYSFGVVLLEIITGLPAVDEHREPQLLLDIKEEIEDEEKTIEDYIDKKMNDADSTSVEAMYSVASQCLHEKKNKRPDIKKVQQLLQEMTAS
Put plainly: RBC HotSpot Kinase Assay, IRAK4. The test is classed as biochemical. Details: purchased Reaction Biology (RBC HotSpot). To be noted: isolated kinase enzyme, 33P-ATP, P81 filter-binding. The essentials: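 Radiometric filter-binding activity assay with isolated recombinant kinase (construct may be truncated or catalytic domain only) in 20 mM Hepes pH 7.5, 10 mM MgCl2, 1 mM EGTA, 2 mM DTT, 1% DMSO. Compound preincubated 20 min with kinase/substrate; reaction started with 33P-ATP, run 2 h at room temperature.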

In the next test the target is T3, FLT3 (Homo sapiens, UniProt P36888).
T3 sequence (P36888 27-993): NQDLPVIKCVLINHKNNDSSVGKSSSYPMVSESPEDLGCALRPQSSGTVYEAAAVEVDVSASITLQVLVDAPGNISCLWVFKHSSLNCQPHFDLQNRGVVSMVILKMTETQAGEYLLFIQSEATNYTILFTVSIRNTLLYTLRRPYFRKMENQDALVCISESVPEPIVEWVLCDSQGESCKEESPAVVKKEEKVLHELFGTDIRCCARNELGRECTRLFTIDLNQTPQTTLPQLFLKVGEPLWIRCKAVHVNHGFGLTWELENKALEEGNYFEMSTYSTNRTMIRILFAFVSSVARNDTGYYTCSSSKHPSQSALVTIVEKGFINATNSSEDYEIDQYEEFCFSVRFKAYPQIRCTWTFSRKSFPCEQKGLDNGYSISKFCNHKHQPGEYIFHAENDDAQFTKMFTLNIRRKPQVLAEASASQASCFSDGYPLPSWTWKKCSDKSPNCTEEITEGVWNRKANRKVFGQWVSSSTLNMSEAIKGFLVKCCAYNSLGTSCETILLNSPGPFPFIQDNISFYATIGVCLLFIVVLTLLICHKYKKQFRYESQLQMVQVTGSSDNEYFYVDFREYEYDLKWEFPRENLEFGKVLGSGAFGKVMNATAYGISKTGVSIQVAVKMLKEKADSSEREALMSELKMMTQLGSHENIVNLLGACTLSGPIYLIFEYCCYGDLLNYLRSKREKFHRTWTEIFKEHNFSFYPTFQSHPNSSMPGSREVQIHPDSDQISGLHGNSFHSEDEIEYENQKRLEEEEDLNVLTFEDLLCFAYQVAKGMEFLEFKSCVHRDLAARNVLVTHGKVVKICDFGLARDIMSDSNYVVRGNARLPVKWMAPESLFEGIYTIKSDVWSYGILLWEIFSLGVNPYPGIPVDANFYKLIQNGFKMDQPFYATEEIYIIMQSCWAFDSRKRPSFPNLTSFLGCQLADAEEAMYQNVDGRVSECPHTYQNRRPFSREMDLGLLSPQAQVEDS
The test is described as follows: RBC HotSpot Kinase Assay, FLT3. It counts as biochemical. The arrangement: purchased Reaction Biology (RBC HotSpot). Conditions: isolated kinase enzyme, 33P-ATP, P81 filter-binding. Summed up: as §1

T1 sequence (P51617 whole entry): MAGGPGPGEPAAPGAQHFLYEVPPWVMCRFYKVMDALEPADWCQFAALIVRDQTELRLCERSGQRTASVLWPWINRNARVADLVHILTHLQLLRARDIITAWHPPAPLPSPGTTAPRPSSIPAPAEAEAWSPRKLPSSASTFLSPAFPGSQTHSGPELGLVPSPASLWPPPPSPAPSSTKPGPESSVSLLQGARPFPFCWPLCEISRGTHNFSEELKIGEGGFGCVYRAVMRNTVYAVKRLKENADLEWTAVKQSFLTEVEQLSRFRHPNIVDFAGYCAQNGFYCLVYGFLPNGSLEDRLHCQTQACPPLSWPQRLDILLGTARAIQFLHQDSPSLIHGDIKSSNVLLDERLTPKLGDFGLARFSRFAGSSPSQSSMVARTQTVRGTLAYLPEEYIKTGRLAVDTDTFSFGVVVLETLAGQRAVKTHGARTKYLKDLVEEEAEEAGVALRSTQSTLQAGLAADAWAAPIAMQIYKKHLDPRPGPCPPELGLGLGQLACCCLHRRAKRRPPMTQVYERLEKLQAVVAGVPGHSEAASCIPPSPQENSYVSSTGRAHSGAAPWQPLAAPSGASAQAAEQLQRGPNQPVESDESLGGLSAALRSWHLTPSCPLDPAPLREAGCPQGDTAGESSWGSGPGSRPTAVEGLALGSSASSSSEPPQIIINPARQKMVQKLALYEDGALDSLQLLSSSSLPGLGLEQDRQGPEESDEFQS

As to `COc1cc2ncc(-c3ccnc(N[C@@H]4CCCNC4)n3)n2nc1C1CCCCC1` [Compound 87a, (R)-4-(6-cyclohexyl-7-methoxyimidazo[1,2-b]pyridazin-3-yl)-N-(piperidin-3-yl)pyrimidin-2-amine], the IC50 on IRAK1 was 26 nM; in the test on MOLM14 D835Y cells, 28 nM; in the test on MOLM14 F691L cells it was 252 nM; on IRAK4, 3 nM; on FLT3, less than 0.5 nM.

As for `COc1cc2ncc(-c3ccnc(N[C@H]4CNCC[C@@H]4F)n3)n2nc1C1CCCCC1` [Compound 88a, 4-(6-cyclohexyl-7-methoxyimidazo[1,2-b]pyridazin-3-yl)-N-((3S,4S)-4-fluoropiperidin-3-yl)pyrimidin-2-amine], the IC50 is 13 nM at IRAK1; 25 nM in the test with MOLM14 D835Y cells; 179 nM in the test with MOLM14 F691L cells; 4 nM on IRAK4; less than 0.5 nM on FLT3.

On to `COc1cc2ncc(-c3ccnc(N[C@H]4CNC[C@@H]4F)n3)n2nc1C12CC(C1)C2` [Compound 89a, 4-(6-(bicyclo[1.1.1]pentan-1-yl)-7-methoxyimidazo[1,2-b]pyridazin-3-yl)-N-((3S,4S)-4-fluoropyrrolidin-3-yl)pyrimidin-2-amine], for which the IC50 at IRAK1 is 44 nM; with MOLM14 D835Y cells, 18 nM; in the test on MOLM14 F691L cells, 160 nM; on IRAK4, 4 nM; on FLT3, less than 0.5 nM.

Take `COc1cc2ncc(-c3ccnc(N[C@@H]4CCCNC4)n3)n2nc1C12CC(C1)C2` [Compound 90a, (R)-4-(6-(bicyclo[1.1.1]pentan-1-yl)-7-methoxyimidazo[1,2-b]pyridazin-3-yl)-N-(piperidin-3-yl)pyrimidin-2-amine]: the IC50 at IRAK1 was 85 nM; with MOLM14 D835Y cells, 50 nM; in the test with MOLM14 F691L cells, 449 nM; at IRAK4, 9 nM; at FLT3 it was less than 0.5 nM.

`COc1cc2ncc(-c3ccnc(N[C@H]4CNCC[C@@H]4F)n3)n2nc1C12CC(C1)C2` [Compound 91a, 4-(6-(bicyclo[1.1.1]pentan-1-yl)-7-methoxyimidazo[1,2-b]pyridazin-3-yl)-N-((3S,4S)-4-fluoropiperidin-3-yl)pyrimidin-2-amine]: the IC50 was 45 nM on IRAK1; 28 nM in the test on MOLM14 D835Y cells; 283 nM in the test with MOLM14 F691L cells; 5 nM on IRAK4; less than 0.5 nM at FLT3.

On to `COc1cc2ncc(-c3nc(N[C@H]4CNC[C@@H]4F)ncc3F)n2nc1C1COC1` [Compound 93a, 5-fluoro-N-((3S,4S)-4-fluoropyrrolidin-3-yl)-4-(7-methoxy-6-(oxetan-3-yl)imidazo[1,2-b]pyridazin-3-yl)pyrimidin-2-amine], for which the IC50 on IRAK1 is 5 nM; in the test with MOLM14 D835Y cells, 13 nM; in the test with MOLM14 F691L cells it was 142 nM; at IRAK4, less than 0.5 nM; on FLT3 it was less than 0.5 nM.

`COc1cc2ncc(-c3ccnc(N[C@H]4CNC[C@@H]4F)n3)n2nc1C1COC1` [Compound 95a, N-((3S,4S)-4-fluoropyrrolidin-3-yl)-4-(7-methoxy-6-(oxetan-3-yl)imidazo[1,2-b]pyridazin-3-yl)pyrimidin-2-amine]: the IC50 came to 300 nM on IRAK1; 113 nM in the test on MOLM14 D835Y cells; 2000 nM in the test on MOLM14 F691L cells; 6 nM on IRAK4; 0.7 nM on FLT3.

Turning to `COc1cc2ncc(-c3ccnc(N[C@@H]4CCCNC4)n3)n2nc1C1COC1` [Compound 96a, (R)-4-(7-methoxy-6-(oxetan-3-yl)imidazo[1,2-b]pyridazin-3-yl)-N-(piperidin-3-yl)pyrimidin-2-amine], the IC50 on IRAK1 was determined as 1790 nM; in the test on MOLM14 D835Y cells, 16 nM; with MOLM14 F691L cells it was 160 nM; on IRAK4 it was 62 nM; on FLT3 it was 0.5 nM.

Consider `COc1cc2ncc(-c3ccnc(N[C@H]4CNCC[C@@H]4F)n3)n2nc1C1COC1` [Compound 97a, N-((3S,4S)-4-fluoropiperidin-3-yl)-4-(7-methoxy-6-(oxetan-3-yl)imidazo[1,2-b]pyridazin-3-yl)pyrimidin-2-amine], for which the IC50 at IRAK1 turned out to be 361 nM; in the test with MOLM14 D835Y cells, 32 nM; in the test with MOLM14 F691L cells, 318 nM; on IRAK4, 4 nM; at FLT3, 0.7 nM.

On to `CC(C)(O)c1cn2c(-c3nc(N[C@H]4CNC[C@@H]4F)ncc3F)cnc2cn1` [Compound 98a, 2-(3-(5-fluoro-2-(((3S,4S)-4-fluoropyrrolidin-3-yl)amino)pyrimidin-4-yl)imidazo[1,2-a]pyrazin-6-yl)propan-2-ol], for which the IC50 on IRAK1 was found to be 46 nM; in the test with MOLM14 D835Y cells it was 113 nM; in the test with MOLM14 F691L cells, 2520 nM; at IRAK4, 2 nM; on FLT3 it was 1 nM.

For the compound `CC(C)(O)c1cn2c(-c3nc(N[C@@H]4CCCNC4)ncc3F)cnc2cn1` [Compound 99a, (R)-2-(3-(5-fluoro-2-(piperidin-3-ylamino)pyrimidin-4-yl)imidazo[1,2-a]pyrazin-6-yl)propan-2-ol], the IC50 at IRAK1 was found to be 44 nM; in the test with MOLM14 D835Y cells, 142 nM; with MOLM14 F691L cells it was 1420 nM; on IRAK4 it was 11 nM; at FLT3, 3 nM.

Take `COc1cc2ncc(-c3nc(N[C@H]4CNC[C@@H]4F)ncc3Cl)n2nc1C1CC1` [Compound 101a, 5-chloro-4-(6-cyclopropyl-7-methoxyimidazo[1,2-b]pyridazin-3-yl)-N-((3S,4S)-4-fluoropyrrolidin-3-yl)pyrimidin-2-amine]: the IC50 on IRAK1 was 24 nM; in the test with MOLM14 D835Y cells, 113 nM; with MOLM14 F691L cells it was 711 nM; on IRAK4, 1 nM; on FLT3, 0.8 nM.

Regarding `COc1cc2ncc(-c3nc(N[C@@H]4CCCNC4)ncc3Cl)n2nc1C1CC1` [Compound 102a, (R)-5-chloro-4-(6-cyclopropyl-7-methoxyimidazo[1,2-b]pyridazin-3-yl)-N-(piperidin-3-yl)pyrimidin-2-amine], the IC50 on IRAK1 was 81 nM; in the test on MOLM14 D835Y cells, 23 nM; in the test with MOLM14 F691L cells, 71 nM; on IRAK4, 2 nM; on FLT3, less than 0.5 nM.

In the case of `COc1cc2ncc(-c3nc(N[C@H]4CNCC[C@@H]4F)ncc3Cl)n2nc1C1CC1` [Compound 103a, 5-chloro-4-(6-cyclopropyl-7-methoxyimidazo[1,2-b]pyridazin-3-yl)-N-((3S,4S)-4-fluoropiperidin-3-yl)pyrimidin-2-amine], the IC50 was found to be 179 nM at IRAK1; 71 nM in the test on MOLM14 D835Y cells; 201 nM in the test with MOLM14 F691L cells; 3 nM at IRAK4; 0.7 nM at FLT3.
